Key:
[1] = system: Erysiphe graminis f. sp. Hordei; assay: Erysiphe test (barley) / protective; assay type: in vivo; settings: Blumeria graminis, 168 h; barley plants, protective spray, 500 ppm active compound, evaluation 7 days after inoculation; read-out: efficacy
Protocol: Solvent: 49 parts by weight of N,N-dimethylformamide
Emulsifier: 1 part by weight of alkylaryl polyglycol ether
To produce a suitable preparation of active compound, 1 part by weight of N-ethyl-N-methyl-N′-[4-phenoxy-2,5-xylyl]formamidine (according to formula I-a) is mixed with the stated amounts of solvent and emulsifier, and the concentrate is diluted with water to the desired concentration.
To test for protective activity, young cereal plants are sprayed with the active compound preparation at the stated application rate. 1 day after the treatment, the plants are inoculated with spores of Erysiphe graminis f. sp. Hordei. The plants are then placed in a greenhouse at 70% relative atmospheric humidity and a temperature of 18° C.
Evaluation is carried out 7 days after the inoculation. 0% means an efficacy which corresponds to that of the control, whereas an efficacy of 100% means that no infection is observed.

Compound | logP acidic (logP (acidic, pH 2.3); acidic) | pest or weed control at 500 ppm [1] | logP (logP (acidic, pH 2.3); pH 2.3) | log P (pH2.3) (logP (acidic, pH 2.3); pH 2.3)
CCCN(C)C=Nc1cc(C)c(Oc2cccc(C(C)(C)OC)c2)cc1C [Compound 65-1, N′-{4-[3-(1-methoxy-1-methylethyl)-phenoxy]-2,5-dimethylphenyl}-N-methyl-N-propyl imidoformamide] | 2.50 |  |  | 
CCN(C)C=Nc1cc(C)c(Oc2cccc(C3CC3)c2)cc1C [Compound 64, N′-[4-(3-cyclopropylphenoxy)-2,5-dimethylphenyl]-N-ethyl-N-methylimido-formamide] |  | ≥ 70% | 2.35 | 
CCN(C)C=Nc1cc(C)c(Oc2cccc(C(C)C)c2)cc1Cl [Compound 61-1, N′-[2-chloro-4-(3-isopropylphenoxy)-5-methylphenyl]-N-ethyl-N-methylimidoformamide] |  | ≥ 70% | 2.38 | 
Cc1cc(N=CN(C)C(C)C)c(Cl)cc1Oc1cccc(C(C)C)c1 [Compound 61-2, N′-[2-chloro-4-(3-isopropylphenoxy)-5-methylphenyl]-N-isopropyl-N-methylimidoformamide] |  | ≥ 70% | 2.54 | 
CCN(C)C=Nc1cc(C)c(Oc2cccc(C(C)(C)OC)c2)cc1C [Compound 37, N-ethyl-N′-{4-[3-(1-methoxy-1-methylethyl)phenoxy]-2,5-dimethylphenyl}-N-methylimidoformamide] |  | ≥ 70% | 2.14 | 
Cc1cc(/N=C/N2CCCCC2)c(Cl)cc1Oc1cccc(C(C)C)c1 [Compound 61-3, 2-chloro-4-(3-isopropylphenoxy)-5-methyl-N-[(1E)-piperidin-1-ylmethylene]aniline] |  |  | 2.62 | 
4-(3-Isopropylphenoxy)-2-chloro-5-methylnitrobenzene |  |  |  | 5.54
CCN(C)C=Nc1cc(C)c(Oc2cccc(CC(C)(C)C)c2)cc1C [Compound 62, N′-{4-[3-(2,2-dimethylpropyl)phenoxy]-2,5-dimethylphenyl}-N-ethyl-N-methylimidoformamide] |  | ≥ 70% | 2.74 | 
COC(C)(C)c1cccc(Oc2cc(C)c(/N=C/N3CC(C)OC(C)C3)cc2C)c1 (stereo not shown) [Compound 65-2, N-[(1E)-(2,6-dimethyl-morpholin-4-yl)methylene]-4-[3-(1-methoxy-1-methylethyl)phenoxy]-2,5-dimethylaniline] |  |  | 2.24 | 
Cc1cc(Oc2cccc(CCCO)c2)c(C)cc1N=CN(C)C(C)C [Compound 57-2, N′-{4-[3-(3-hydroxypropyl)phenoxy]-2,5-dimethylphenyl}-N-isopropyl-N-methylimidoformamide] |  | ≥ 70% | 1.67 | 
Cc1cc(N)c(Cl)cc1Oc1cccc(C(C)C)c1 [4-(3-Isopropylphenoxy)-2-chloro-5-methylaniline] |  |  | 4.68 | 
CCN(C)C=Nc1cc(C)c(Oc2cccc(C[Si](C)(C)C)c2)cc1C [Compound 63, N′-(2,5-dimethyl-4-{3-[(trimethylsilyl)methyl]-phenoxy}phenyl)-N-ethyl-N-methylimido-formamide] |  | ≥ 70% | 2.93 | 
CCN(C)C=Nc1cc(C)c(Oc2cccc(CCCO)c2)cc1C [Compound 57-1, N-ethyl-N′-{4-[3-(3-hydroxypropyl)phenoxy]-2,5-dimethylphenyl}-N-methylimidoformamide] |  |  | 1.56 | 
CCN(C)C=Nc1cc(C)c(Oc2cccc(C(C)(CC)OC)c2)cc1C (stereo not shown) [Compound 8, N-ethyl-N′-{4-[3-(1-methoxy-1-methylpropyl)phenoxy]-2,5-dimethylphenyl}-N-methylimidoformamide] |  | ≥ 70% |  | 
Cc1cc(/N=C/N2CCCCC2C)c(Cl)cc1Oc1cccc(C(C)C)c1 (stereo not shown) [Compound 61-4, 2-chloro-4-(3-isopropylphenoxy)-5-methyl-N-[(1E)-(2-methylpiperidin-1-yl)methylene]aniline] |  |  | 2.67 | 

Reference: patent US8394991B2, “Phenoxy substituted phenylamidine derivatives and their use as fungicides” (Bayer Cropscience AG, priority 2007, dated 2013)
